# Measurements taken from ChEMBL document CHEMBL2040735, “Synthesis, benzodiazepine receptor binding and molecular modelling of isochromeno[4,3-c]pyrazol-5(1H)-one derivatives” (Eur J Med Chem, 2012).
# Organism: Bos taurus
# Conditions: Brain, Membrane, 1 uM
# Description: Displacement of [3H]flunitrazepam from benzodiazepine receptor in bovine brain membrane at 1 uM by liquid scintillation counting
row,SMILES,inhibition
1,CN1C(=O)CN=C(c2ccccc2)c2cc(Cl)ccc21,98%

# Organism: Bos taurus
# Assay: Displacement of [3H]flunitrazepam from benzodiazepine receptor in bovine brain membrane at 10 uM by liquid scintillation counting
# Format: cell membranes
# Conditions: not given
row,SMILES,inhibition
1,O=c1oc2c(-c3ccccc3)nn(-c3ccccc3)c2c2ccccc12,5%
2,Cc1nn(-c2ccccc2)c2c1c(=O)oc1ccccc12,76%
3,Cc1cccc(-n2nc(C)c3c(=O)oc4ccccc4c32)c1,78%
4,Cc1nn(-c2ccccc2)c2c1oc(=O)c1ccc(Cl)cc12,35%
5,Cc1nn(-c2ccccc2)c2c1oc(=O)c1cc(Cl)ccc12,0%
6,Cc1nn(-c2cccc(Cl)c2)c2c1oc(=O)c1ccccc12,28%
7,Cc1ccc(-n2nc(C)c3oc(=O)c4ccccc4c32)cc1,13%
8,Cc1nn(-c2cccc(Cl)c2)c2c1c(=O)oc1ccccc12,86%
9,Cc1nn(-c2ccccc2)c2c1oc(=O)c1ccccc12,20%
10,Cc1ccc2c(c1)c(=O)oc1c(C)nn(-c3ccccc3)c12,6%
11,O=c1oc2ccccc2c2c1c(-c1ccccc1)nn2-c1ccccc1,10%
12,Cc1cccc(-n2nc(C)c3oc(=O)c4ccccc4c32)c1,40%
13,Cc1ccc(-n2nc(C)c3c(=O)oc4ccccc4c32)cc1,66%
14,O=c1oc2cnn(-c3ccccc3)c2c2ccccc12,54%
